These results are taken from PMC11022729 (Advanced Science, 2024).

In series [1] the test system is mice. Nature of the series: Histamine-induced itch behavior. Format: in vivo, mouse. Conditions: i.p. An excerpt: (§1) Chloroquine‐induced scratching in mice is driven by MrgprA3 activation in the NP2 population of sensory neurons.^[ [10], [29] ^] To further explore the antipruritic efficacy of compound 6 in histamine‐independent itch, we assessed the behavioral response after s.c. injection of the peptide Ser‐Leu‐Ile‐Gly‐Arg‐Leu (SLIGRL) that evokes scratching by activation of MrgprC11,^[ [30] ^] which is expressed in the NP2 and NP3 population.^[ [10] ^] […] Moreover, compound 6 ameliorated histamine‐independent itch evoked by s.c. injection of β‐alanine that activates MrgprD^[ [31] ^] in the NP1 population of sensory neurons^[ [10] ^] (Figure 3F). In contrast, scratching induced by subcutaneous histamine was not affected by compound 6 (Figure 3G). The lack of an effect on histamine‐evoked scratching was supported by the low affinity of compound 6 for histamine H1 receptors, which was determined using a [^3H]‐pyrilamine competition binding assay in vitro (Table S3, Supporting Information). […] We also investigated the efficacy of compound 6 after peroral (p.o.) delivery.
(§2) Three to four days before the day of the experiment, the fur on the dorsolateral aspect of the neck was shaved under brief isoflurane anesthesia. […] Number of scratching bouts directed toward the nape of the neck was assessed over 30 min by videotaping. […]

Series [2] deals with voltage-dependent Na+ channels in IB4-binding sensory neurons. Nature of the series: Tetrodotoxin-resistant Na+ currents in DRG neurons (patch-clamp). The series is classed as cell-based, mouse. The conditions noted are these: 50 µM. In general terms: The patch-clamp technique gives a direct electrical read-out from membranes.
The subject of a further series is IB4-binding DRG neurons. Nature of the series: Whole-cell current-clamp recordings on sensitized DRG neurons. Format: cell-based, mouse. The conditions noted are these: 50 µM.
In series [3] the target is T1, histamine H1 receptor (Homo sapiens, UniProt P35367). As to the kind of experiment: [3H]-pyrilamine competition binding assay. The arrangement: expressed in transfected cells; host or cells: CHO. As to the method: For membrane preparations of CHO cells stably expressing the human histamine H1 receptor (H1R), cells were washed and harvested with PBS buffer, homogenized by sonication (3 × 15 s) in ice‐cold HEPES‐H1R binding buffer (20 mM HEPES, 10 mM MgCl2, and 100 mM NaCl), followed by a centrifugation step (20 000 × g, 30 min, 4 °C). The resulting cell pellet was resuspended in binding buffer and homogenized using a hand potter. Membrane extracts were stored at −80 °C. Prior to use, the membranes were handled as described for D2R/D3R. […] Assays were performed at least in duplicates with appropriate concentrations between 0.1 nM and 100 µM of the test compound. […] The subsequent procedure was performed as described for D2R/D3R.

Series [4] has as its system mice. Nature of the series: Pulse oximetry in conscious, freely moving mice. Conditions: 10 mg kg−1 i.p., observation period of 30 min. The method, then: To measure cardiovascular function, a pulse oximeter (MouseOX Plus, Starr Life Sciences Corp.) was used in conscious, freely moving mice. After three consecutive days of habituating the mice to the collar clip for at least 30 min, baseline measurements were performed. […] All the datasets were sampled at 1 Hz, error‐corrected according to the manufacturer's instructions, and averaged over 300 s for each time point.

In series [5] the target is T1, histamine H1 receptor. As to the kind of experiment: SafetyScreen44 panel. The series is classed as binding. The arrangement: purchased Eurofins Cerep P270. The conditions noted are these: 10 µM. As to the method: (§3) Measurements were performed in duplicate.
(§4) channel, which were obtainedfrom ratspecimens).
(§5) in brackets) specific for each target.

The subject of series [6] is mice. Nature of the series: β-alanine-induced itch behavior. Format: in vivo, mouse. Conditions: i.p.
Description: as §1, §2

Series [7] relates to mice. Nature of the series: DNFB model of allergic contact dermatitis (persistent itch). Format: in vivo, mouse. The conditions noted are these: i.p. after the second DNFB exposure, vs vehicle. The method, then:
We next assessed the efficacy of compound 6 in the treatment of chronic itching. […] These findings are important because they indicate that Slack activators can reduce existing itching.
To induce persistent itch, a model of allergic contact dermatitis^[ [32] ^] was used. The fur on the dorsolateral aspect of the neck was shaved under brief isoflurane anesthesia. Three to four days later, the shaved skin area was exposed to 100 µL of 0.15% 2,4‐dinitrofluorobenzene (DNFB) in acetone/olive oil (3:1). After 10–11 days, the skin was shaved again, and the DNFB solution was applied 3–4 days later (i.e., two painting sessions 14 days apart). Ninety minutes after the second DNFB application, the mice were habituated to a plexiglass cylinder (30 cm diameter) for 15 min. Compound 6 hydrochloride or vehicle was administered i.p., and 15 min later, spontaneous scratching was recorded over 30 min by videotaping.

Series [8] deals with mice. Nature of the series: SLIGRL-induced itch behavior. The series is classed as in vivo, mouse. Conditions: 10 mg kg−1 i.p.
Description: as §1, §2

A further series deals with Na+ channel. As to the kind of experiment: SafetyScreen44 panel. The conditions noted are these: 10 µM.
The next series has as its target T2, muscarinic M3 receptor (Homo sapiens, UniProt P20309).
T2 construct: purchased Eurofins Cerep P270
Nature of the series: biochemical. The conditions noted are these: read-out: binding inhibition. As to the method:
as §3, §4, §5

A further series has as its target T3, muscarinic M1 receptor (Homo sapiens, UniProt P11229).
T3 construct: purchased Eurofins Cerep P270
As to the kind of experiment: biochemical. Conditions: read-out: binding inhibition. As to the method: as §3, §4, §5

Series [9] deals with T4, serotonin 5-HT1A receptor (Homo sapiens, UniProt P08908).
T4 construct: purchased Eurofins Cerep P270
As to the kind of experiment: SafetyScreen44 panel. The conditions noted are these: read-out: binding inhibition. As to the method:
as §3, §4, §5

The target in another series is serotonin 5-HT3 receptor (Homo sapiens, UniProt P46098). Nature of the series: SafetyScreen44 panel. Conditions: read-out: binding inhibition. The method, then: as §3, §4, §5
The target in series [10] is T5, serotonin 5-HT1B receptor (Homo sapiens, UniProt P28222).
T5 construct: purchased Eurofins Cerep P270
Nature of the series: SafetyScreen44 panel. The conditions noted are these: read-out: binding inhibition. The method, then: as §3, §4, §5

Another series addresses histamine H2 receptor (Homo sapiens, UniProt P25021). Nature of the series: SafetyScreen44 panel. Conditions: read-out: binding inhibition. As to the method:
as §3, §4, §5

Series [11] deals with human ether-à-go-go (hERG) potassium channel (Homo sapiens, UniProt Q12809). Nature of the series: SafetyScreen44 panel. The conditions noted are these: 10 µM. As to the method:
as §3, §4, §5

In another series the target is muscarinic M2 receptor (Homo sapiens, UniProt P08172). Nature of the series: SafetyScreen44 panel. The conditions noted are these: read-out: binding inhibition. The method, then: as §3, §4, §5

pKi: −log10 of the molar value. Where only a bound is given, the exact number is not on record here.

T1 sequence (P35367 whole entry): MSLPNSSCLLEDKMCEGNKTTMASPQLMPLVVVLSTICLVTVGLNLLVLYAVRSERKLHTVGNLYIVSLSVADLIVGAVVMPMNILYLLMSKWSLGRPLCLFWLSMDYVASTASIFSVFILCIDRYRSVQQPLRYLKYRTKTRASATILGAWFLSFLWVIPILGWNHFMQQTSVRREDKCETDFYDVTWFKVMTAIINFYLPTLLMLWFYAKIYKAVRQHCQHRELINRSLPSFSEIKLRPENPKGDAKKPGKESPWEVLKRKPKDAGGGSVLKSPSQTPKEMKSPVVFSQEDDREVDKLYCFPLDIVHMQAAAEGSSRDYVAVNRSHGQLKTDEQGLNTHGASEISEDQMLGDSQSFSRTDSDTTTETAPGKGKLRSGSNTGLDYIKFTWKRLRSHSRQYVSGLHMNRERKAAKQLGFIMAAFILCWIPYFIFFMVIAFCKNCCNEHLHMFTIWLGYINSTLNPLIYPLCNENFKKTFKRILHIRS
muscarinic M2 receptor, sequence (P08172 whole entry): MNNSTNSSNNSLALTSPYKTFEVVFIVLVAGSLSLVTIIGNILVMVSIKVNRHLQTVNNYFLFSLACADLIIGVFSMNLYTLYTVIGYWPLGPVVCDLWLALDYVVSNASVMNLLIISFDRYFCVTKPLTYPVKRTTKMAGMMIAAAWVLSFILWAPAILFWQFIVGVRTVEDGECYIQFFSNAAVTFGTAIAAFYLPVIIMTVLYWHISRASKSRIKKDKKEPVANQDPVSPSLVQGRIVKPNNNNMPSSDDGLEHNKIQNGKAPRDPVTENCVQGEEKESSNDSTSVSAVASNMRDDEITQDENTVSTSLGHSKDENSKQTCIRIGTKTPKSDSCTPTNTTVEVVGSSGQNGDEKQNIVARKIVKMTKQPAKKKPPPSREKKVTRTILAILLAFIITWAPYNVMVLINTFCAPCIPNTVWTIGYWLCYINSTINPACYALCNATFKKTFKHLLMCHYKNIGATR
T2 sequence (P20309 whole entry): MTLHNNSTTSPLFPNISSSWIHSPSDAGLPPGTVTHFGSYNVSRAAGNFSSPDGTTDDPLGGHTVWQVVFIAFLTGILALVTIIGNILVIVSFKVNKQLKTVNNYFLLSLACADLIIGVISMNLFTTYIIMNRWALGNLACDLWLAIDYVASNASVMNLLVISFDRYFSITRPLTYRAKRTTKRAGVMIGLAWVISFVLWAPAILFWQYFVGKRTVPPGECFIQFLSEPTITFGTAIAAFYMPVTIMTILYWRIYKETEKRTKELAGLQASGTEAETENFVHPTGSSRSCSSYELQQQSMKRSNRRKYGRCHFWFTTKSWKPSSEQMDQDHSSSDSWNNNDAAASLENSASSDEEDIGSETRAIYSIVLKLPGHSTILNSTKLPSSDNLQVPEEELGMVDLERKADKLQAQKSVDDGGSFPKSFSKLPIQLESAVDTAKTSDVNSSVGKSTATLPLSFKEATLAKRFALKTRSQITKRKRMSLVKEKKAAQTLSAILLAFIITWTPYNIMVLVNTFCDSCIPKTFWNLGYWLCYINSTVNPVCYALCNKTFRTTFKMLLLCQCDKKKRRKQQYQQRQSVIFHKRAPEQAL
serotonin 5-HT3 receptor, sequence (P46098 24-478): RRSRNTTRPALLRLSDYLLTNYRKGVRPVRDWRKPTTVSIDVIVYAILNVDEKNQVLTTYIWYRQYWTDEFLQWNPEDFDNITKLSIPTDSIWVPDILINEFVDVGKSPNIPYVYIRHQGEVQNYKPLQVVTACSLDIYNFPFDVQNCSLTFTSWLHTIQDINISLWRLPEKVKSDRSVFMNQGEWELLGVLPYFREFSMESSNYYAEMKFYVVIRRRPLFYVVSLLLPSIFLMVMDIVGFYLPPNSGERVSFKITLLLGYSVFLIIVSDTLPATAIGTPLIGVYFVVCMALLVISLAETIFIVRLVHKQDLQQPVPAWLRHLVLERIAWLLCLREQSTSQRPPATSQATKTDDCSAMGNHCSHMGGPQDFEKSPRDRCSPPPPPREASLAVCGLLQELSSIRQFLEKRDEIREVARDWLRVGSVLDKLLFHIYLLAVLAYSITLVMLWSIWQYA
T4 sequence (P08908 whole entry): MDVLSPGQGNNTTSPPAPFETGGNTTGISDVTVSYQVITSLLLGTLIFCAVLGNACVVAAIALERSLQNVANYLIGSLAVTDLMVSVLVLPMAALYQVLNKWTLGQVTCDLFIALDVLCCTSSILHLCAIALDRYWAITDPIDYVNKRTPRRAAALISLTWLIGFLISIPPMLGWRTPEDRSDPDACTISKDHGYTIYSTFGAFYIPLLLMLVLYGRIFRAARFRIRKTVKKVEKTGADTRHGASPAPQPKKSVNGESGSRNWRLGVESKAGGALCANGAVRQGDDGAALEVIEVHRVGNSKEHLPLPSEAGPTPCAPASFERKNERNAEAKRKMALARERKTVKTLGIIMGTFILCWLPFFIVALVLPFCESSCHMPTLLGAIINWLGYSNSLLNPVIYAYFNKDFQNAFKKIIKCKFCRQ
T5 sequence (P28222 whole entry): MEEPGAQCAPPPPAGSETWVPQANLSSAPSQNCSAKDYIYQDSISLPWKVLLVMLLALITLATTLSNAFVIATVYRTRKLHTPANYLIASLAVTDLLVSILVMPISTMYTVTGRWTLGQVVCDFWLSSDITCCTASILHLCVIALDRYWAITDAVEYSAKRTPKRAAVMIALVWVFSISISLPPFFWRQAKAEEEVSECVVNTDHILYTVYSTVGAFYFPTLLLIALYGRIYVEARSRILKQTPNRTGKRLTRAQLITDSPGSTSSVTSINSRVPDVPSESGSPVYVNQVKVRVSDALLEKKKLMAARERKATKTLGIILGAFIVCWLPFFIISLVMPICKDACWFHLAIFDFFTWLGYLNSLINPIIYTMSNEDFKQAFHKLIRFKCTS
histamine H2 receptor, sequence (P25021 whole entry): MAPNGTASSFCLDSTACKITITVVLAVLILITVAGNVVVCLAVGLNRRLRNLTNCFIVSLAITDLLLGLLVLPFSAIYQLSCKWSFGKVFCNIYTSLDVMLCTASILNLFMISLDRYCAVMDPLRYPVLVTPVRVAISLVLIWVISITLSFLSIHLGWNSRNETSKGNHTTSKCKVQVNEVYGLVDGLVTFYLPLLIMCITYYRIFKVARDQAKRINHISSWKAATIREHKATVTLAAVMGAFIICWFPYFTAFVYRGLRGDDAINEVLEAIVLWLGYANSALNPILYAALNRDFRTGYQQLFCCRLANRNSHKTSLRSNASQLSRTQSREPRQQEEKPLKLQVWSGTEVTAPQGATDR
T3 sequence (P11229 whole entry): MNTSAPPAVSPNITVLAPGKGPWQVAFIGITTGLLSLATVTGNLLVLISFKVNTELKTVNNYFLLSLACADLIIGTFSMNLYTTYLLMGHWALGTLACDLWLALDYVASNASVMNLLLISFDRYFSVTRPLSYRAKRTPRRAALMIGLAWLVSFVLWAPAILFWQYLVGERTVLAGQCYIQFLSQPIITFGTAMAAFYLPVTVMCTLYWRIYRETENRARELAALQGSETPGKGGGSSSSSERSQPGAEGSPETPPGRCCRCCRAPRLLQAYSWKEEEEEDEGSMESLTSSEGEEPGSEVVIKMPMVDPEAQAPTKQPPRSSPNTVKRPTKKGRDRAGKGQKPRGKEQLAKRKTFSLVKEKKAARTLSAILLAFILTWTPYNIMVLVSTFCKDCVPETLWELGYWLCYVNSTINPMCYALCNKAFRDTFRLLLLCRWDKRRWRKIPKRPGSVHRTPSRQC
human ether-à-go-go (hERG) potassium channel, sequence (Q12809 whole entry): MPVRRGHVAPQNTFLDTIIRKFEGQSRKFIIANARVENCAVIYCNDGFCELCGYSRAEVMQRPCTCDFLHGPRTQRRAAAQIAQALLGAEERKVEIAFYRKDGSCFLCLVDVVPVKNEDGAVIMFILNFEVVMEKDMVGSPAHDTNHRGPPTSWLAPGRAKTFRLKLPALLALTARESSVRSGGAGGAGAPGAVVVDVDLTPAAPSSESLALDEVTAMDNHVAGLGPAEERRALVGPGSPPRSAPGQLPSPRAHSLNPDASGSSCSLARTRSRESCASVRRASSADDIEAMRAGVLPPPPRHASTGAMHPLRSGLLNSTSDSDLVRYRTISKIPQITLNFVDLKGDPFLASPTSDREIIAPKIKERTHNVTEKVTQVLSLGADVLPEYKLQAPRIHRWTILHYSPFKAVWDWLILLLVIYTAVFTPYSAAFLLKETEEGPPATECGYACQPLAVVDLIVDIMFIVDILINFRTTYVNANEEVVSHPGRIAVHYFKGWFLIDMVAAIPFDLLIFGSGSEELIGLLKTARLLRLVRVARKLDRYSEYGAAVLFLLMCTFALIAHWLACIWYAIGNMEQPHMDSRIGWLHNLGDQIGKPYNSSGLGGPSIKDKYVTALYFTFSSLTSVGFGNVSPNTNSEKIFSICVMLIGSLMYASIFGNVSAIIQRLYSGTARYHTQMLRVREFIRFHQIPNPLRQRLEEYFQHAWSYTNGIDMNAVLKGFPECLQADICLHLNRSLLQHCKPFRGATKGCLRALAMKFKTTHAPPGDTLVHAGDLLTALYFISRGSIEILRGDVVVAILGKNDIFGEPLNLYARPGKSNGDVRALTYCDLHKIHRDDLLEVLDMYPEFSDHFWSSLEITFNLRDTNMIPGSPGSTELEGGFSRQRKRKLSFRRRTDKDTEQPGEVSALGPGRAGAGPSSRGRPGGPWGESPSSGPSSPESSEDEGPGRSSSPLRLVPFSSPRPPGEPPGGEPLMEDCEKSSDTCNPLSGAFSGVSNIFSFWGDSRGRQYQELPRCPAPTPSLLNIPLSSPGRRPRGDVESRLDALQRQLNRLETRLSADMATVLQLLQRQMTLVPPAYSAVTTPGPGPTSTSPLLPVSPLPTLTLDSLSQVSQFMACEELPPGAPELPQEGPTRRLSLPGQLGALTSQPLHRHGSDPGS

`O=C(O)COCCN1CCN(C2=Nc3ccccc3Oc3ccc(Cl)cc32)CC1` [Compound 6]: in the series with mice [1], the “scratching induced by subcutaneous histamine” value is recorded as “not affected”. Also, the “tetrodotoxin-resistant Na+ currents” value in [2] is on record as “did not affect”. Besides, in the series on IB4-binding DRG neurons (cells with recorded APs), the AP amplitude result is on record as “Neither compound 6 nor the vehicle had a significant effect” and the “AP duration at 90% repolarization (APD90)” value is listed as “Neither compound 6 nor the vehicle had a significant effect”. The “resting membrane potential (RMP)” value with IB4-binding DRG neurons (current injection 200–950 pA) is reported as “Neither compound 6 nor the vehicle significantly affected”. The “number of AP fired” value with IB4-binding DRG neurons (current injection 200–950 pA, after inflammatory soup) is recorded as “profound decrease”. Besides, in the series on IB4-binding DRG neurons (in the 7 cells with recorded APs), the “rheobase compared to baseline” value is on record as “visibly, but not significantly, increased”. Moreover, the “cells that elicited APs” value in the series with IB4-binding DRG neurons (small currents (0–220 pA), vehicle 11 of 11) is 7 of 13. For the same molecule, the “affinity for histamine H1 receptors” value on histamine H1 receptor [3] is reported as “low affinity”. At histamine H1 receptor [3] (mean [CI 95%]), this molecule gave a pKi of 6.24. Besides, in the series on mice [4], the breath rate entry is given as “did not affect” and the heart rate entry is on record as “did not affect”. On histamine H1 receptor [5], the binding inhibition result is reported as “substantial binding”. Further, the “itch evoked by s.c. injection of β-alanine” value in the series on mice [6] was “ameliorated”. For the same molecule, in the series on mice [7], the “number of head shakes” value is on record as “significantly reduced” and the “number of scratching bouts” value is reported as “significantly reduced”. For the same molecule, the SLIGRL-induced scratching behavior result in the series with mice [8] was “significantly inhibited”.

Consider `CN1CCN(C2=Nc3ccccc3Oc3ccc(Cl)cc32)CC1` [Loxapine, reference compound], for which the binding inhibition entry with Na+ channel is “higher than 50%”. In addition, the inhibition at 10 µM (at muscarinic M3 receptor; on muscarinic M1 receptor; in series [9]; at serotonin 5-HT3 receptor; in [10]; on histamine H2 receptor) was more than 50% each time. At muscarinic M2 receptor, the inhibition at 10 µM is more than 50%. In series [11], the binding entry was “did not measurably bind”.

Usually pKi stands for the Ki on a negative log10 scale, so that one unit is a factor of ten. The low end stands for a large Ki, the high end for a small Ki. By inhibition is commonly meant the share of the control response that was lost under treatment.
